Experiments:
Test in all cases: biochemical
Design in all cases: DiscoverX KINOMEscan scanMAX competition binding panel, single concentration, percent of control; remaining binding: dose or concentration left out as unconfirmed
Details in all cases: KINOMEscan binding, percent of control; read-out: Table S4_SCANMAX REPORT - related to Fig. 1 / Percent Control
[1] = target: T1, ABL1(H396P)-phosphorylated (Homo sapiens, UniProt P00519, H396P)
T1 construct: phosphorylated

[2] = target: T2, AMPK-alpha2 (Homo sapiens, UniProt P54646)
T2 construct: gene PRKAA2
T2 sequence (P54646 whole entry): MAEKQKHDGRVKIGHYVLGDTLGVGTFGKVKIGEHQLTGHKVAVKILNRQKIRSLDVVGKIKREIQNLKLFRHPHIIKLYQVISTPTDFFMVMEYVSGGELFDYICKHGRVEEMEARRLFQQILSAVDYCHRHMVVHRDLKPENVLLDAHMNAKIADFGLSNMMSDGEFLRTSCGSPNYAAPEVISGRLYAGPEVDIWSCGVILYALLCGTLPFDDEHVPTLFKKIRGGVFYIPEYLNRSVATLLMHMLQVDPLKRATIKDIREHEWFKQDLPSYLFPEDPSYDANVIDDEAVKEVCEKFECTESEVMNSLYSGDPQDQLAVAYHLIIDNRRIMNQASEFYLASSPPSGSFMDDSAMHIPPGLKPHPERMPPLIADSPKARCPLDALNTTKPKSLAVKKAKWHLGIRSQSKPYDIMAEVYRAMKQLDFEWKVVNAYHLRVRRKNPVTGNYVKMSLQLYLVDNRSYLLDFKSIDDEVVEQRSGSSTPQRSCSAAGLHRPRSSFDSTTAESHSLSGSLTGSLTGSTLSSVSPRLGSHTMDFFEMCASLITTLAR

[3] = target: BTK (Homo sapiens, UniProt Q06187)
Chain of BTK (Q06187 whole entry): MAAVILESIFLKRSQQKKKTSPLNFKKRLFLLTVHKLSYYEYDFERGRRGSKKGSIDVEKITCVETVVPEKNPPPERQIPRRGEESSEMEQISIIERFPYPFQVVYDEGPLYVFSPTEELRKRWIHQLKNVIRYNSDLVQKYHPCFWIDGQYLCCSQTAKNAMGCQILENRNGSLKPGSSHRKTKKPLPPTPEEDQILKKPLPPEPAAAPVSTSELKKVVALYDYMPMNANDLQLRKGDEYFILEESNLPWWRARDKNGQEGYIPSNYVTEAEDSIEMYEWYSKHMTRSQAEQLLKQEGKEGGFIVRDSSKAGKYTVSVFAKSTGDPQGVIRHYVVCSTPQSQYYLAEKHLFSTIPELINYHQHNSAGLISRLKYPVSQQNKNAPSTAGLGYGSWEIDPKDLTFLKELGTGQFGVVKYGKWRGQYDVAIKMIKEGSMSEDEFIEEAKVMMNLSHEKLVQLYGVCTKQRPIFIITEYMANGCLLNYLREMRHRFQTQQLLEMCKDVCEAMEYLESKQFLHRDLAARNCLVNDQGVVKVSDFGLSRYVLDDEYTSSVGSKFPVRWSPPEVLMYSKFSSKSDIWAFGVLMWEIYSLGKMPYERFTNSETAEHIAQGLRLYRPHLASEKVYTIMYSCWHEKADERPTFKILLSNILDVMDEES

[4] = target: CIT (Homo sapiens, UniProt O14578)
[5] = target: CSK (Homo sapiens, UniProt P41240)
[6] = target: FES (Homo sapiens, UniProt P07332)
[7] = target: FGFR3 (Homo sapiens, UniProt P22607)
[8] = target: FLT3(ITD) (Homo sapiens, UniProt P36888, ITD)
Chain of FLT3(ITD) (P36888 564-993, change not shown): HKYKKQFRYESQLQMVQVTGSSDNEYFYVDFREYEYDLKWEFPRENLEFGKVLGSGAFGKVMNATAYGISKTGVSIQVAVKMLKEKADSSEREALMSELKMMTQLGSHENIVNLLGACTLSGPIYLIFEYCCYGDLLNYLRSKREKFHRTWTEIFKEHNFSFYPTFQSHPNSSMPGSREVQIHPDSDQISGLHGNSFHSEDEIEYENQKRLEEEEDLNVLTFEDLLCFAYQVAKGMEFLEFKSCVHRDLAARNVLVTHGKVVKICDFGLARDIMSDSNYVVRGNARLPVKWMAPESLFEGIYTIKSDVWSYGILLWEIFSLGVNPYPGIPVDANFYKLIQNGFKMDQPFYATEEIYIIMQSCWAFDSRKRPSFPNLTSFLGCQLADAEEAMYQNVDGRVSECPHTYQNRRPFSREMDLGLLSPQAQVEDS

[9] = target: T3, MST1 (Homo sapiens, UniProt Q13043)
T3 construct: gene STK4

[10] = target: T4, MST4 (Homo sapiens, UniProt Q9P289)
T4 construct: gene STK26

[11] = target: MUSK (Homo sapiens, UniProt O15146)
Chain of MUSK (O15146 whole entry): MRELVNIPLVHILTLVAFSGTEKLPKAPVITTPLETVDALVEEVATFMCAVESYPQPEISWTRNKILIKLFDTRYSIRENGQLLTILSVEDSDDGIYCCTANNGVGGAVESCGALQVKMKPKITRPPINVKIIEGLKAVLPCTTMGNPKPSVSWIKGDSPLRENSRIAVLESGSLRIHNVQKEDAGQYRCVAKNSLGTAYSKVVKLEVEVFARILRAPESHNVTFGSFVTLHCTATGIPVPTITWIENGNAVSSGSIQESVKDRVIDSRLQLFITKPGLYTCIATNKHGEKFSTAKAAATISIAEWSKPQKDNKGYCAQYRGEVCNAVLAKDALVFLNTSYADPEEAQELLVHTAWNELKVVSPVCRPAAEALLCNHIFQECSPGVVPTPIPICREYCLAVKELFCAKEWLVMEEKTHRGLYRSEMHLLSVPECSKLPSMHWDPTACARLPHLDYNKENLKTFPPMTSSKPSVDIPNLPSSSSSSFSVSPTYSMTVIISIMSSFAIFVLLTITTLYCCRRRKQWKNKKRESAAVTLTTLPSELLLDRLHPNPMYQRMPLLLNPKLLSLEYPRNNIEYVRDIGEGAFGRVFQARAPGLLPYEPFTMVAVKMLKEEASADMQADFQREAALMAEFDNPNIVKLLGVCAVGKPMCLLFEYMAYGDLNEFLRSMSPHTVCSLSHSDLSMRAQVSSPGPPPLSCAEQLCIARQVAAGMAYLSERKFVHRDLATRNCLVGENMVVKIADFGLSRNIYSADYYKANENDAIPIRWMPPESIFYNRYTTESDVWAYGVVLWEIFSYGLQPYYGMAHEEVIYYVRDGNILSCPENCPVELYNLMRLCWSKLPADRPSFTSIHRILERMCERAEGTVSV

[12] = target: NEK5 (Homo sapiens, UniProt Q6P3R8)
Chain of NEK5 (Q6P3R8 whole entry): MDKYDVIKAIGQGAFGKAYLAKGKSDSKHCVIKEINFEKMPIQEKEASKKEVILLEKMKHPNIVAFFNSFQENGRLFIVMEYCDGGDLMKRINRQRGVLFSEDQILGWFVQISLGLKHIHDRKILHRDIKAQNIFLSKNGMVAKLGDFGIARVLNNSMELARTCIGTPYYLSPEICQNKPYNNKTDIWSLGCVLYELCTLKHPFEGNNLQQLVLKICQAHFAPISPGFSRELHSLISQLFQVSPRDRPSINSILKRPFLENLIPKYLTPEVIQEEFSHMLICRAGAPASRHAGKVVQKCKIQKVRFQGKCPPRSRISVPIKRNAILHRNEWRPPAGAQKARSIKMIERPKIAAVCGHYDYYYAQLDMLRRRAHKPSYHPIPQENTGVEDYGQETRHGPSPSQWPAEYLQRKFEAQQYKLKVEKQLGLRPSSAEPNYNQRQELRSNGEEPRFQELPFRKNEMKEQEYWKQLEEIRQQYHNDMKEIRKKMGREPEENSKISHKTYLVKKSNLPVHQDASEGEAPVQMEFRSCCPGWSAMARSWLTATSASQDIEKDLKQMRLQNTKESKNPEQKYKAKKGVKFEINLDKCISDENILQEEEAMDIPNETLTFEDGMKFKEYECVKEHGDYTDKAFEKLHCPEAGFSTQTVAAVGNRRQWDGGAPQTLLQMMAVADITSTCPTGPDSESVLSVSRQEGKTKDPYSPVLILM

[13] = target: T5, PAK7 (Homo sapiens, UniProt Q9P286)
T5 construct: gene PAK5

[14] = target: PIK3CA(E545A) (Homo sapiens, UniProt P42336, E545A)
[15] = target: RET (Homo sapiens, UniProt P07949)
Chain of RET (P07949 whole entry): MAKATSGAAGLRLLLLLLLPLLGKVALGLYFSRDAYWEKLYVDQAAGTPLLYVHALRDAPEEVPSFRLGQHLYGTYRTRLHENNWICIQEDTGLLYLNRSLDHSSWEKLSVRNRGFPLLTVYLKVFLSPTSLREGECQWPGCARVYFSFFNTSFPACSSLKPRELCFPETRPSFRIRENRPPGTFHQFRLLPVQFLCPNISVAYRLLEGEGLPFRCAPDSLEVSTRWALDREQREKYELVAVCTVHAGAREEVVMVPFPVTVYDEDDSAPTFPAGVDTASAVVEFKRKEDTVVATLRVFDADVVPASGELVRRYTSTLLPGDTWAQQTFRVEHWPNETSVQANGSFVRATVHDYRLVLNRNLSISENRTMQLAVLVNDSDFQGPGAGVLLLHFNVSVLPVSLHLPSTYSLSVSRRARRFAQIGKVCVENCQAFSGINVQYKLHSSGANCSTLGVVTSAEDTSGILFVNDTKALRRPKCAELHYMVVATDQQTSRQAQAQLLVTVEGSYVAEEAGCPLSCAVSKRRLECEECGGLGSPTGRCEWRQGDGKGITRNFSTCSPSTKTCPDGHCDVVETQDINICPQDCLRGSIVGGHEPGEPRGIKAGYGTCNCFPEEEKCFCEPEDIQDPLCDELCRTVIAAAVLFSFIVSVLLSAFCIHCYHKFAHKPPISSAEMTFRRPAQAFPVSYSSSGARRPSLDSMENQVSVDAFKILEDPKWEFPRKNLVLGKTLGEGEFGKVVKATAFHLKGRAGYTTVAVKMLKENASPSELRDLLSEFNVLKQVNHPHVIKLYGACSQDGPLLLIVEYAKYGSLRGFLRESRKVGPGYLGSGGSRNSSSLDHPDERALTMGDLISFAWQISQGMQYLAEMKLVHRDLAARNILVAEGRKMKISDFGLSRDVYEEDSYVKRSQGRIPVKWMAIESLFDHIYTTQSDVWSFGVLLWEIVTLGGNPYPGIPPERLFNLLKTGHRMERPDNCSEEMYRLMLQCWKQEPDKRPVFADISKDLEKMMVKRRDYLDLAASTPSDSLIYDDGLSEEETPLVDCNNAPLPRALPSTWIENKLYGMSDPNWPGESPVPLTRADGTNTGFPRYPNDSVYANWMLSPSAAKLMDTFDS

[16] = target: SRPK1 (Homo sapiens, UniProt Q96SB4)
[17] = target: STK35 (Homo sapiens, UniProt Q8TDR2)
Chain of STK35 (Q8TDR2 whole entry): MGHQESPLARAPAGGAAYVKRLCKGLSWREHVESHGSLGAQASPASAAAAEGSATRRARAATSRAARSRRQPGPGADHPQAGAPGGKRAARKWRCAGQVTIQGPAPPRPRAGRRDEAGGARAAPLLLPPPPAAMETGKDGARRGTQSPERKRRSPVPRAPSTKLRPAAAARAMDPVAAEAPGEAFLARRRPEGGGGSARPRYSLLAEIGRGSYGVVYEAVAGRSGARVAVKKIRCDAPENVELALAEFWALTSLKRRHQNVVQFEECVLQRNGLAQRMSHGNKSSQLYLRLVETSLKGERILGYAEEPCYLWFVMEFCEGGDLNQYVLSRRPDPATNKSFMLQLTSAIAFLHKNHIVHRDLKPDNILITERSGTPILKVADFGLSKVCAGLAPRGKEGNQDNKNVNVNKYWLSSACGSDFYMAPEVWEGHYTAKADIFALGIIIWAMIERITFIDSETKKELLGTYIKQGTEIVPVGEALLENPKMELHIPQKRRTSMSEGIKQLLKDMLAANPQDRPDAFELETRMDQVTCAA

[18] = target: T6, YANK1 (Homo sapiens, UniProt Q8WU08)
T6 construct: gene STK32A

[19] = target: T7, ZAK (Homo sapiens, UniProt Q9NYL2)
T7 construct: gene MAP3K20

For `c1ccc2c(c1)Sc1ccccc1N2CCN1CCOCC1` [J54], the remaining binding [1] was 100%, the remaining binding [2] was 100% and the remaining binding [3] was 97%. The remaining binding [4] was 88%, the remaining binding [5] was 100% and the remaining binding [6] was 100%. It also gave a remaining binding [7] of 97%, a remaining binding [8] of 68% and a remaining binding [9] of 100%. For the same molecule, the remaining binding [10] was 100%, the remaining binding [11] was 100% and the remaining binding [12] was 70%. For the same molecule, the remaining binding [13] was 100%, the remaining binding [14] was 97% and the remaining binding [15] was 98%. For the same molecule, the remaining binding [16] was 100%, the remaining binding [17] was 82% and the remaining binding [18] was 91%. The remaining binding [19] was 85%.

From article PMC7486443, “Generation of Phenothiazine with Potent Anti-TLK1 Activity for Prostate Cancer Therapy” (iScience, 2020)
